Assay results from patent publication US12496350B2 (Ohio State Innovation Foundation, priority 2018, dated 2025).
Where a SMILES comes first, the peptide text is derived from it. Where no end group is shown, it is not given here. [ ]: non-standard residue; d: D form. The star is where a group is joined. X2 = O=C(O)c1cc(C(=O)*)ccc1-c1c2ccc(=O)cc-2oc2cc(O)ccc12; X1 = O=C(O)c1cc(NC(=S)*)ccc1C1c2ccc(O)cc2Oc2cc(O)ccc21; X3 = O=C(O)c1cc(C(=O)*)ccc1C1c2ccc(O)cc2Oc2cc(O)ccc21; 1Nal = N[C@@H](Cc1cccc2ccccc12)C(=O)O; 2Nal = N[C@@H](Cc1ccc2ccccc2c1)C(=O)O; Bta = N[C@@H](Cc1csc2ccccc12)C(=O)O; Pen = CC(C)(S)[C@H](N)C(=O)O; Tle = CC(C)(C)[C@H](N)C(=O)O; AEEA = NCCOCCOCC(=O)O

Target: T1, CAL PDZ domain (CALP5-His) (Homo sapiens, UniProt Q9HD26)
T1 construct: His
Assay: FP-based competition assay, Condition B (probe FAM-[…]-OH)
Format: binding
Settings: Condition B (superscript b): 100 nM probe FAM-[…]-OH, 500 nM CALP5-His, 5 mM DTT
Experimental: Serial dilutions of each competitor peptide were prepared in PBS and the incubation solution was added to each. The combined solutions were gently mixed for 1 h at RT after which 20 uL sample was pipetted into 384-well black-on-black microplates and fluorescence polarization was measured using a TECAN Infinite M1000 plate reader. Data was processed to determine IC50 using GraphPad PRISM ver. 6.0.

IC50 [µM] | Compound
> 20 | CC(=O)N[C@@H](CS)C(=O)N[C@@H](CCCNC(=N)N)C(=O)N[C@@H](CCCNC(=N)N)C(=O)N[C@@H](CCCNC(=N)N)C(=O)N[C@@H](Cc1ccccc1)C(=O)N[C@@H](Cc1c[nH]c2ccccc12)C(=O)N[C@@H](CCC(N)=O)C(=O)N[C@@H](CS)C(=O)N[C@H](C(=O)N[C@@H](CCCNC(=N)N)C(=O)N[C@@](C)(CC(C)C)C(=O)O)[C@@H](C)O [Compound 4]

Same assay, conditions: Pen for cysteine at P-3

improvement of CAL binding [fold] | Compound
~2 | CC(=O)N[C@@H](CS)C(=O)N[C@@H](CCCNC(=N)N)C(=O)N[C@@H](CCCNC(=N)N)C(=O)N[C@@H](CCCNC(=N)N)C(=O)N[C@@H](Cc1ccccc1)C(=O)N[C@@H](Cc1c[nH]c2ccccc12)C(=O)N[C@@H](CCC(N)=O)C(=O)N[C@H](C(=O)N[C@H](C(=O)N[C@@H](CCCNC(=N)N)C(=O)N[C@H](C(=O)O)C(C)(C)C)[C@@H](C)O)C(C)(C)S [Compound 16, Ac-Cys-Arg-Arg-Arg-Phe-Trp-Gln-Pen-Thr-Arg-Tle-OH]

Same assay, conditions: Trp replaced with 1- or 2-naphthylalanine

effect of substitution at P-5 on binding | Compound
did not significantly affect the binding | CC(=O)N[C@@H](CS)C(=O)N[C@@H](CCCNC(=N)N)C(=O)N[C@@H](CCCNC(=N)N)C(=O)N[C@@H](CCCNC(=N)N)C(=O)N[C@@H](Cc1ccccc1)C(=O)N[C@@H](Cc1cccc2ccccc12)C(=O)N[C@@H](CCC(N)=O)C(=O)N[C@@H](CS)C(=O)N[C@H](C(=O)N[C@@H](CCCNC(=N)N)C(=O)N[C@H](C(=O)O)C(C)(C)C)[C@@H](C)O [Compound 14, Ac-Cys-Arg-Arg-Arg-Phe-(1-Nal)-Gln-Cys-Thr-Arg-Tle-OH] (Ac-CRRRF[1Nal]QCTR[Tle]-OH)
did not significantly affect the binding | CC(=O)N[C@@H](CS)C(=O)N[C@@H](CCCNC(=N)N)C(=O)N[C@@H](CCCNC(=N)N)C(=O)N[C@@H](CCCNC(=N)N)C(=O)N[C@@H](Cc1ccccc1)C(=O)N[C@@H](Cc1ccc2ccccc2c1)C(=O)N[C@@H](CCC(N)=O)C(=O)N[C@@H](CS)C(=O)N[C@H](C(=O)N[C@@H](CCCNC(=N)N)C(=O)N[C@H](C(=O)O)C(C)(C)C)[C@@H](C)O [Compound 15, Ac-Cys-Arg-Arg-Arg-Phe-(2-Nal)-Gln-Cys-Thr-Arg-Tle-OH] (Ac-CRRRF[2Nal]QCTR[Tle]-OH)

Target: T1, CAL PDZ domain (CALP5-His)
Assay: Direct fluorescence polarization binding of labeled peptide, Condition C
Settings: not given
Experimental: Condition C (denoted with superscript ^C): 50 nM labeled peptide was incubated with 2 mM TCEP in PBS at pH 7.4 containing 0.01% Triton-X100. CALP5-His was serially diluted in PBS containing 0.01% Triton-X100 to which was then added the peptide and TCEP solution. This solution was mixed for 1 h at RT then 20 uL was pipetted into 384-well microplates and fluorescence polarization was measured using a TECAN Infinite M1000 plate reader. KD values were calculated using KaleidaGraph v. 3.6 using the equation: […]
Binding Affinity and Selectivity. The potency and selectivity of inhibitor 29 was first assessed by comparing its binding affinity to the four PDZ domains of CAL, NHERF1, and NHERF2, which are involved in the trafficking of CFTR to and from the plasma membrane. Peptides were labeled with FITC at the N-terminus through a miniPEG linker and tested for binding to various PDZ domains by fluorescence polarization (FP). FITC-labeled peptide (50 nM) was incubated with varying concentrations of PDZ domain in PBS (pH 7.4) containing 0.01% Triton X-100 and 2 mM TCEP for 1 h at room temperature. After 1 h, 20 μL of each sample was pipetted into 384-well black-on-black microplates and fluorescence polarization was measured by using a TECAN Infinite M1000 plate reader. Data was processed using GraphPad PRISM ver. 8.0.

specificity for CAL PDZ domain relative to other PDZ domains (e.g., NHERF PDZ domains) | Compound
relatively low specificity | C[C@@H](O)[C@H](NC(=O)[C@@H](NC(=O)[C@@H](NC(=O)[C@H](Cc1csc2ccccc12)NC(=O)[C@H](Cc1ccc2ccccc2c1)NC(=O)[C@H](CCCNC(=N)N)NC(=O)[C@H](CCCNC(=N)N)NC(=O)[C@@H](CCCNC(=N)N)NC(=O)[C@H](CS)NC(=O)COCCOCCNC(=O)c1ccc(-c2c3ccc(=O)cc-3oc3cc(O)ccc23)c(C(=O)O)c1)C(C)(C)S)C(C)(C)C)C(=O)N[C@@H](CCCNC(=N)N)C(=O)N[C@H](C(=O)O)C(C)(C)C [Compound 26, FAM-miniPEG-Cys-(D-Arg)-Arg-Arg-(2-Nal)-(Bta)-Pen-Tle-Thr-Arg-Tle-OH] ({X2-AEEA}-C[dR]RR[2Nal][Bta][Pen][Tle]TR[Tle]-OH)

Same assay, conditions: Condition C (superscript c): 50 nM labeled peptide, 2 mM TCEP; read-out: KD (printed in the IC50 (nM) column)

Kd [nM] | Compound
49 ± 3 | C[C@@H](O)[C@H](NC(=O)[C@@H](NC(=O)[C@@H](NC(=O)[C@H](Cc1csc2ccccc12)NC(=O)[C@H](Cc1ccc2ccccc2c1)NC(=O)[C@H](CCCNC(=N)N)NC(=O)[C@H](CCCNC(=N)N)NC(=O)[C@@H](CCCNC(=N)N)NC(=O)[C@H](CS)NC(=O)COCCOCCNC(=O)c1ccc(-c2c3ccc(=O)cc-3oc3cc(O)ccc23)c(C(=O)O)c1)C(C)(C)S)C(C)(C)C)C(=O)N[C@@H](CCCNC(=N)N)C(=O)N[C@H](C(=O)O)C(C)(C)C [Compound 26, FAM-miniPEG-Cys-(D-Arg)-Arg-Arg-(2-Nal)-(Bta)-Pen-Tle-Thr-Arg-Tle-OH] ({X2-AEEA}-C[dR]RR[2Nal][Bta][Pen][Tle]TR[Tle]-OH)
168 | C[C@@H](O)[C@H](NC(=O)[C@@H](NC(=O)[C@@H]1CCCN1C(=O)[C@H](Cc1c[nH]c2ccccc12)NC(=O)[C@H](Cc1ccc2ccccc2c1)NC(=O)[C@H](CCCNC(=N)N)NC(=O)[C@H](CCCNC(=N)N)NC(=O)[C@H](CCCNC(=N)N)NC(=O)[C@H](CS)NC(=O)COCCOCCNC(=O)c1ccc(C2c3ccc(O)cc3Oc3cc(O)ccc32)c(C(=O)O)c1)C(C)(C)S)C(=O)N[C@@H](CCCNC(=N)N)C(=O)N[C@H](C(=O)O)C(C)(C)C [Compound 23, FAM-miniPEG-Cys-(D-Arg)-Arg-Arg-(2-Nal)-Trp-Pro-Pen-Thr-Arg-Tle-OH] ({X3-AEEA}-CRRR[2Nal]WP[Pen]TR[Tle]-OH)

Same assay, conditions: FITC-labeled peptide, FP; read-out: Affinity (KD)

Kd [nM] | Compound
87 | CC(=O)N[C@@H](CS)C(=O)N[C@H](CCCNC(=N)N)C(=O)N[C@@H](CCCNC(=N)N)C(=O)N[C@@H](CCCNC(=N)N)C(=O)N[C@@H](Cc1ccc2ccccc2c1)C(=O)N[C@@H](Cc1csc2ccccc12)C(=O)N1CCC[C@H]1C(=O)N[C@H](C(=O)N[C@H](C(=O)N[C@@H](CCCNC(=N)N)C(=O)N[C@H](C(=O)O)C(C)(C)C)[C@@H](C)O)C(C)(C)S [Compound 28, Ac-Cys-(D-Arg)-Arg-Arg-Nal-Bta-Pro-Pen-Thr-Arg-Tle-OH] (Ac-C[dR]RR[2Nal][Bta]P[Pen]TR[Tle]-OH)
87 ± 14 | C[C@@H](O)[C@H](NC(=O)[C@@H](NC(=O)[C@@H]1CCCN1C(=O)[C@H](Cc1csc2ccccc12)NC(=O)[C@H](Cc1ccc2ccccc2c1)NC(=O)[C@H](CCCNC(=N)N)NC(=O)[C@H](CCCNC(=N)N)NC(=O)[C@@H](CCCNC(=N)N)NC(=O)[C@H](CS)NC(=O)COCCOCCNC(=S)Nc1ccc(C2c3ccc(O)cc3Oc3cc(O)ccc32)c(C(=O)O)c1)C(C)(C)S)C(=O)N[C@@H](CCCNC(=N)N)C(=O)N[C@H](C(=O)O)C(C)(C)C [Compound 28-FITC, FITC-miniPEG-Cys-(D-Arg)-Arg-Arg-Nal-Bta-Pro-Pen-Thr-Arg-Tle-OH] ({X1-AEEA}-C[dR]RR[2Nal][Bta]P[Pen]TR[Tle]-OH)
179 | CC(=O)N[C@@H](CS)C(=O)N[C@H](CCCNC(=N)N)C(=O)N[C@@H](CCCNC(=N)N)C(=O)N[C@@H](CCCNC(=N)N)C(=O)N[C@@H](Cc1ccc2ccccc2c1)C(=O)N[C@@H](Cc1c[nH]c2ccccc12)C(=O)N1CCC[C@H]1C(=O)N[C@H](C(=O)N[C@H](C(=O)N[C@@H](CCCNC(=N)N)C(=O)N[C@H](C(=O)O)C(C)(C)C)[C@@H](C)O)C(C)(C)S [Compound 27, Ac-Cys-(D-Arg)-Arg-Arg-Nal-Trp-Pro-Pen-Thr-Arg-Tle-OH] (Ac-C[dR]RR[2Nal]WP[Pen]TR[Tle]-OH)
179 ± 42 | C[C@@H](O)[C@H](NC(=O)[C@@H](NC(=O)[C@@H]1CCCN1C(=O)[C@H](Cc1c[nH]c2ccccc12)NC(=O)[C@H](Cc1ccc2ccccc2c1)NC(=O)[C@H](CCCNC(=N)N)NC(=O)[C@H](CCCNC(=N)N)NC(=O)[C@@H](CCCNC(=N)N)NC(=O)[C@H](CS)NC(=O)COCCOCCNC(=S)Nc1ccc(C2c3ccc(O)cc3Oc3cc(O)ccc32)c(C(=O)O)c1)C(C)(C)S)C(=O)N[C@@H](CCCNC(=N)N)C(=O)N[C@H](C(=O)O)C(C)(C)C [Compound 27-FITC, FITC-miniPEG-Cys-(D-Arg)-Arg-Arg-Nal-Trp-Pro-Pen-Thr-Arg-Tle-OH] ({X1-AEEA}-C[dR]RR[2Nal]WP[Pen]TR[Tle]-OH)

Target: CAL PDZ binding domain (Homo sapiens, UniProt Q9HD26)
Assay: not given
Settings: CAL PDZ binding sequences not conjugated to a cCPP; cited from earlier work

Compound | Ki [µM]
WQVTRV [WQVTRV] | 2.3 ± 0.2
WQRTRI [WQRTRI] | 16 ± 2
WQFTRL [WQFTRL] | 7.6 ± 0.7
WQLTKL [WQLTKL] | 17 ± 1
WQFTKL [WQFTKL] | 16 ± 1
WQRTRV [WQRTRV] | 18 ± 1
WQKTRV [WQKTRV] | 16 ± 2
WQKTRI [WQKTRI] | 12 ± 0.9
WQKTRL [WQKTRL] | 9 ± 0.6
WQKTKL [WQKTKL] | 17.8 ± 0.8
WQRTRL [WQRTRL] | 10.8 ± 0.7
